Laboratory results reported in US20250025493A1, “GLUCOHEXAOSE AND PREPARATION METHOD THEREFOR AND APPLICATION THEREOF, AND HAIR REGENERATION PREPARATION” (UNIVERSITY OF MACAU, priority 2021, published 2025).

How the values were obtained:
[1] = tested on: androgenetic alopecia in mouse models; experiment: Treatment of androgenetic alopecia in mouse models, summary over all administration routes; assay type: in vivo, mice; conditions: direct skin application, subcutaneous injection or microneedle release administration
Source text: The glucohexaose used in the present disclosure can be used to treat androgenetic alopecia in mouse models via any one of direct skin application administration, subcutaneous injection administration and microneedle release administration, and the hair formation is observed.

[2] = tested on: hair follicles in back unhairing area, androgenetic alopecia (AGA) mouse model; experiment: Animal experiment, microneedle administration, mouse model of androgenetic alopecia (AGA); assay type: in vivo, C57BL/6J mice; conditions: microneedle administration on D-0, D-7, D-14, FIG. 5
Source text: (§1) The method is as follows: healthy male 7-week-old C57BL/6J mice were subjected to back unhairing treatment, wherein the hair on the back area was completely removed using an unhairing cream (Veet); starting from D-0, testosterone was topically applied to the back unhairing area of the mice every day to simulate androgenetic alopecia (AGA) for modeling, and the hair growth of the mice was photographed for recording; the gulcohexaose was microneedle administered to the back unhairing area of the mice every seven days (D-0, D-7, D-14), designated as OG6 group; a blank group (no applying) was set up, designated as a control group; and the hair growth on the back of the mice was observed on day 21.

[3] = tested on: Ccl5 gene in mouse bone marrow-derived macrophages (mBMDM); experiment: Verification experiment, real-time fluorescence quantitative PCR of Ccl5 gene expression in macrophages; assay type: cell-based, mouse (C57BL/6J); conditions: 50 ug/ml, FIG. 2
Source text: To verify the experimental results of eukaryotic mRNA sequencing analysis, a real-time fluorescence quantitative PCR experiment was used to determine the expression level of Ccl5 gene in macrophages stimulated by the gulcohexaose. The gulcohexaose prepared in example I was used to perform an induction and activation experiment on mouse bone marrow-derived macrophages (mBMDM, primary cells extracted from C57BL/6J mice by laboratory methods): • mouse bone marrow-derived monocytes (5×10^6 cells/10 cm petri dish) were seeded in 10 cm petri dishes and cultured using L929 cell culture supernatant obtained after 7 days of culture+RPMI-1640 medium+10% fetal bovine serum+1% penicillin-streptomycin in a 37° C., 5% CO2 incubator. […] After co-incubation for different time periods, the total RNA was extracted from the samples respectively, and the expression levels of Ccl5 cytokine in mouse bone marrow-derived macrophages before and after the stimulation by the gulcohexaose were detected by real-time quantitative PCR.

[4] = tested on: hair follicles in back unhairing area, androgenetic alopecia (AGA) mouse model; experiment: Animal experiment, direct application, mouse model of androgenetic alopecia (AGA); assay type: in vivo, C57BL/6J mice; conditions: direct topical application on D-0, D-7, D-14, FIG. 3
Source text: The gulcohexaose sample prepared in example 1 was investigated for the biological effect in promoting hair follicle regeneration.
The method is as follows: healthy male 7-week-old C57BL/6J mice were subjected
as §1, with “to” for “The method is as follows: healthy male 7-week-old C57BL/6J mice were subjected to”, “establish a mouse model of” for “simulate”, “(AGA),” for “(AGA) for modeling,”, “directly and topically applied” for “microneedle administered”

[5] = tested on: hair follicles in back unhairing area, androgenetic alopecia (AGA) mouse model; experiment: Animal experiment, subcutaneous injection, mouse model of androgenetic alopecia (AGA); assay type: in vivo, C57BL/6J mice; conditions: subcutaneous injection on D-0, D-7, D-14, FIG. 4
Source text: as §1, with “(AGA),” for “(AGA) for modeling,”, “subcutaneously injected” for “microneedle administered”

[6] = tested on: mouse bone marrow-derived macrophages (mBMDM); experiment: Induction and activation experiment on macrophages, eukaryotic mRNA sequencing of released cytokines; assay type: cell-based, mouse (C57BL/6J); conditions: 50 ug/ml, 24 h co-incubation, vs PBS group, FIG. 1
Description: The gulcohexaose sample prepared in example 1 above was used to perform an induction and activation experiment on mouse bone marrow-derived macrophages (mBMDM, primary cells extracted from C57BL/6J mice by laboratory methods):
Mouse bone marrow-derived monocytes (5×10^6 cells/10 cm petri dish) were seeded in 10 cm petri dishes and cultured using L929 cell culture supernatant obtained after 7 days of culture+RPMI-1640 medium+10% fetal bovine serum+1% penicillin-streptomycin in a 37° C., 5% CO2 incubator. After cell adherence, the cells were co-incubated with 50 ug/ml gulcohexaose for 24 h, designated as OG6 group, while a blank group (an experimental group to which the gulcohexaose was not added and to which an equal volume (10 μl) of PBS buffer (mainly consisted of Na2HPO4, KH2PO4, NaCl and KCl) was added) was set up, designated as PBS group. After 24 h of co-incubation, the total RNA was extracted from the sample using TRIzol (Invitrogen), eukaryotic mRNA sequencing experiment analysis and bioinformatics analysis were performed, and the difference between the expression level of cytokines released by the mouse bone marrow-derived macrophages stimulated by the gulcohexaose and the expression level of cytokines released in the blank group was compared. This experiment was repeated twice.

Substance: Man-Man-Man-Man-Glc-Glc [gulcohexaose]
- adverse reactions [1]: without any serious adverse reactions
- growth of hair on the back of mice [1]: can effectively promote the growth of hair on the back of mice
- hair growth at treated part compared with blank group ([2]; observed day 21): obviously denser than that on the mice in the blank group
- hair follicle stage in back treatment area compared with blank group ([2]; testosterone-induced AGA mice): the first to enter a growth period from a resting period and are the first to grow hair
- expression level of Ccl5 cytokine in macrophages (real-time quantitative PCR) ([3]; 1 h, 12 h and 24 h, vs PBS group): rapidly upregulate the expression level of Ccl5 cytokine
- expression level of Ccl5 cytokine in macrophages after 24 hours of stimulation ([3]; 24 h): high expression level of Ccl5 cytokine in macrophages maintained
- hair growth on day 21 compared with blank group ([4]; day 21): obviously superior to that on the mice in the blank group
- hair follicle stage in back treatment area compared with blank group ([4]; testosterone-induced AGA mice): have entered a growth period from a resting period and grew hair
- hair growth on day 21 compared with blank group ([5]; day 21): obviously superior to that on the mice in the blank group
- hair follicle stage in back treatment area compared with blank group ([5]; testosterone-induced AGA mice): have entered a growth period from a resting period and grew hair
- expression level of cytokines released by macrophages versus blank group (mRNA sequencing) [6]: can specifically activate macrophages to release a cytokine network mainly comprising CCL5 chemotactic factors
